The nature of test [1]: Antioxidant activity assessed as DPPH radical scavenging activity. Type of test: functional. The conditions noted are these: read-out: IC50. On the technique in general: Loss of DPPH colour is used to gauge radical scavenging.
Test [2] can be described thus: Inhibition of ALR2 (unknown origin). On the set-up: species or system Homo sapiens.
A short description of test [3]: Inhibition of ALR1 (unknown origin) relative to control. The conditions noted are these: Homo sapiens; concentration not given here. Further details: concentration or dose not given beside the values.
Test [4] can be described thus: Antioxidant activity assessed as DPPH radical scavenging activity at 100 uM. Type of test: functional.
A short description of test [5]: Antioxidant activity assessed as DPPH radical scavenging activity at 50 uM. Type of test: functional.
Test [6] is described as follows: Antioxidant activity assessed as DPPH radical scavenging activity at 10 uM. It is filed as functional.
In test [7] the test system is Candida albicans. The test is described as follows: Antifungal activity against Candida albicans. It is filed as functional.
Test [8] has as its system Candida. Nature of the test: Antifungal activity against Candida species isolate 1. It is filed as functional.
Test [9] has as its system Candida. The test is described as follows: Antifungal activity against Candida species isolate 2. Type of test: functional.
Test [10] has as its system Candida. The test is described as follows: Antifungal activity against Candida species isolate 3. It is filed as functional.
Test [11] relates to Pichia kudriavzevii. Nature of the test: Antifungal activity against Candida krusei. It is filed as functional.
Test [12] relates to Candida parapsilosis. Nature of the test: Antifungal activity against Candida parapsilosis. It is filed as functional. The conditions noted are these: Lodderomyces parapsilosis.
Test [13] deals with Candida tropicalis. Nature of the test: Antifungal activity against Candida tropicalis. It is filed as functional.
For test [14], the system named is Nakaseomyces glabratus. The test is described as follows: Antifungal activity against Candida glabrata. It is filed as functional.
Test [15] concerns Pyricularia grisea. The test is described as follows: Antifungal activity against Magnaporthe grisea GD08-T19 at 50 ug/ml. It is filed as functional. The note with it: dose 50 µg/ml.
Test [16] has as its system Pyricularia grisea. Nature of the test: Antifungal activity against Magnaporthe grisea GD08-T19 assessed as diameter zone of inhibition. Type of test: functional.
The test system of test [17] is Pseudomonas aeruginosa. The test is described as follows: Antibacterial activity against Pseudomonas aeruginosa. It is filed as functional.
The test system of test [18] is Escherichia coli. The test is described as follows: Antibacterial activity against Escherichia coli. Type of test: functional.
Test [19] has as its system Staphylococcus aureus. Nature of the test: Antibacterial activity against Staphylococcus aureus. Type of test: functional.
In test [20] the test system is Klebsiella pneumoniae. The test is described as follows: Antibacterial activity against Klebsiella pneumoniae. Type of test: functional.
Test [21] deals with Staphylococcus aureus. Nature of the test: Antibacterial activity against methicillin-resistant Staphylococcus aureus. Type of test: functional.
For test [22], the target named is Glutamate receptor ionotropic AMPA (Homo sapiens, UniProt P42261+P42262+P42263+P48058). Nature of the test: Displacement of [3H]AMPA from AMPA receptor (unknown origin). Type of test: protein-complex assay. (In general: In a radioligand displacement assay an active substance lowers the binding of a labelled ligand.)
A short description of test [23]: Displacement of [3H]glycine from AMPA receptor (unknown origin). It is filed as protein-complex assay, Homo sapiens.
Test [24] concerns the target Glutamate [NMDA] receptor. Nature of the test: Displacement of [3H]MK-801 from NMDA receptor (unknown origin). It is filed as protein-complex assay, Homo sapiens.
Test [25] has as its system A549. Nature of the test: Antiproliferative activity against human A549 cells. It is filed as functional, cell-based.
In test [26] the test system is HeLa. Nature of the test: Antiproliferative activity against human HeLa cells. Type of test: functional, cell-based.
Test [27] deals with LS174T. The test is described as follows: Antiproliferative activity against human LS174T cells. Type of test: functional, cell-based.
Test [28] has as its system MRC5. The test is described as follows: Antiproliferative activity against human MRC5 cells. Type of test: functional, cell-based.
The test system of test [29] is Escherichia coli. The test is described as follows: Antibacterial activity against Escherichia coli assessed as diameter zone of inhibition. Type of test: functional.
Test [30] addresses T1, Alpha amylase (Homo sapiens, UniProt P0DUB6).
T1 sequence (P0DUB6 whole entry): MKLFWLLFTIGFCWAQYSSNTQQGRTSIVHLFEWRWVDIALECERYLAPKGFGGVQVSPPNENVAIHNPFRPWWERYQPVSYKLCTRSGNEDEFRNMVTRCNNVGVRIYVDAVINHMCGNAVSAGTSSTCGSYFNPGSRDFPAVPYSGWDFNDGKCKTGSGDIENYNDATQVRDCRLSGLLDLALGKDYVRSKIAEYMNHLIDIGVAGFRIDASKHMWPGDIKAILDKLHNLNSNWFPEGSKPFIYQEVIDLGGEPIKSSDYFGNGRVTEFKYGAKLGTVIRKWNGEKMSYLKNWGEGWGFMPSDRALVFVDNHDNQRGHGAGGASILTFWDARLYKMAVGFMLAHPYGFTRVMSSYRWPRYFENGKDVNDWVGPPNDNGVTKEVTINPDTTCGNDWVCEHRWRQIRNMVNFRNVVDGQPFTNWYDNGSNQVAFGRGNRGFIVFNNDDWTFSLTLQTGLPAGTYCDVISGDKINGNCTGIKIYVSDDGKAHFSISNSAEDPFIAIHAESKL
The test is described as follows: Inhibition of alpha-amylase (unknown origin).

For test [31], the system named is Staphylococcus aureus. Nature of the test: Antibacterial activity against Staphylococcus aureus assessed as diameter zone of inhibition. It is filed as functional.
The subject of test [32] is Bacillus subtilis. The test is described as follows: Antibacterial activity against Bacillus subtilis assessed as diameter zone of inhibition. It is filed as functional.

The structures appear in SMILES notation. Converted amounts (≈) assume the structure as drawn.

As a reminder, the IC50 is the concentration needed to halve the response being measured. By inhibition is commonly meant how much of the control response was suppressed. Regarding `O=c1c(/C=C/c2ccc(O)cc2)nc2ccc(F)cc2n1-c1cnn(O)c1`, the IC50 in [1] is 78.9 µM; in test [2], 0.107 µM. Besides, in test [3], the inhibition worked out at 34.3%. The figures for the Activity in [4], in [5] and in test [6] were 65.3%, 31.5% and 18.7%, respectively.
As usually defined, the MIC is the smallest concentration in the dilution series that meets the test's criterion for growth inhibition. Turning to `O=c1[nH]c2cc(C(F)(F)F)ccc2nc1C(F)(F)F`, the MIC in test [7] was 8 µg/mL (≈ 28.4 µM); in test [8], 15.6 µg/mL (≈ 55.3 µM); in test [9], 125 µg/mL (≈ 443 µM); in [10] it was 125 µg/mL (≈ 443 µM); in test [11] it was 250 µg/mL (≈ 886 µM); in test [12], 15.6 µg/mL (≈ 55.3 µM). Besides, the MIC in test [13] and in test [14] was 125 µg/mL (≈ 443 µM) in each case.
In turn, `Cn1c(=O)c(C(CCCNC(=O)c2ccc(OC(F)(F)F)cc2)CC(F)(F)F)nc2ccccc21` (stereo not given) displayed an Activity in test [15] of 49%. Further, the “diameter of the inhibition zone (DIZ)” value in [16] is listed as 32 mm.
On to `O=C1CSC(c2ccc(F)cc2)N1c1ccc2nc(Cc3ccc(O)cc3)c(=O)[nH]c2c1` (stereo not given), for which the MBC stood at 21.7 µM (≈ 9.71 µg/mL) in [17]; 32.6 µM (≈ 14.6 µg/mL) in test [18]; 43.5 µM (≈ 19.5 µg/mL) in [19]; 65.2 µM (≈ 29.2 µg/mL) in test [7]; 87 µM (≈ 38.9 µg/mL) in test [20]; 87 µM (≈ 38.9 µg/mL) in test [21]. In test [1], the 50% inhibitory concentration (IC50) was found to be 239 µM.
The Ki is a measure of affinity in units of concentration, obtained from inhibition or displacement. What is called EC50 is the concentration needed to bring the measured effect to its halfway point. With `O=C(O)c1nc2c(=O)[nH]c3cc(Cl)c(Cl)cc3n2n1`, the Ki in test [22] stood at 1.3 µM; in test [23], 0.074 µM. This compound also displayed an EC50 in test [24] of 0.3 µM.
On to `COc1ccc(C(=O)Nc2cccc(C(=O)/C=C3/Nc4ccccc4NC3=O)c2)cc1`, for which the IC50 in test [25] worked out at 40.4 µM; in test [26] it was 10.5 µM; in [27] it was 16.8 µM; in [28] it was 182 µM.
The like results for `COc1ccc(C(=O)/C=C2/Nc3ccccc3NC2=O)cc1` were, in that order, 66.9 µM, 15.2 µM, 24.3 µM and 190 µM.
In turn, `Cn1c(=O)c(C(CCCOc2cc(=O)oc3ccccc23)CC(F)(F)F)nc2ccccc21` (stereo not given) had an Activity in test [15] of 23%. For the same compound, the “diameter of the inhibition zone (DIZ)” value in test [16] is reported as 48 mm.
In the case of `O=C1CN(C(=O)CNc2ccccc2O)c2ccccc2N1`, the “diameter of the inhibition zone (DIZ)” value in test [29] was 11 mm.
As to `COc1ccc(C2SCC(=O)N2c2ccc3nc(Cc4ccc(O)cc4)c(=O)[nH]c3c2)cc1` (stereo not given), the MBC in test [17] was found to be 680 µM (≈ 313 µg/mL); in test [18], 21.2 µM (≈ 9.74 µg/mL); in test [19], 15.9 µM (≈ 7.31 µg/mL); in [7], 85 µM (≈ 39.1 µg/mL); in test [21], 63.8 µM (≈ 29.3 µg/mL). Further, the IC50 worked out at 19.6 µM in test [1] and 301.59 µM in test [30].
As for `O=c1[nH]c2ccccc2nc1Cc1nnc(S)o1`, the “diameter of the inhibition zone (DIZ)” value in [31] came to 11 mm; in test [32], 10 mm.
Turning to `COc1cc(/C=C/c2nc3ccccc3n(CC(=O)O)c2=O)ccc1O`, the IC50 came to 24.1 µM in test [1] and 0.419 µM in test [2]. This compound also returned an inhibition in test [3] of 32.6%. The values for the Activity in test [4], in test [5] and in test [6] were 95.4%, 68.8% and 39.6%, respectively.
On to `O=C(/C=C/c1ccccc1)/C=C1/Nc2ccccc2NC1=O`, for which the IC50 in [25] was determined as 22.6 µM; in [26] it was 16.6 µM; in [27], 19.1 µM; in test [28], 174 µM.
Regarding `O=c1[nH]c2ccc(C(F)(F)F)cc2nc1CBr`, the MIC in test [19] is 31.2 µg/mL (≈ 102 µM); in test [7] it was 31.2 µg/mL (≈ 102 µM); in test [8] it was 15.6 µg/mL (≈ 50.8 µM); in [9], 62.5 µg/mL (≈ 204 µM); in test [10], 62.5 µg/mL (≈ 204 µM); in test [11], 62.5 µg/mL (≈ 204 µM). In addition, the MIC was 250 µg/mL (≈ 814 µM) in test [12], > 500 µg/mL in test [13] and 62.5 µg/mL (≈ 204 µM) in test [14].

(Values after ChEMBL document CHEMBL5113380, “Functionalized quinoxalinones as privileged structures with broad-ranging pharmacological activities” (Eur J Med Chem, 2022).)
